The numbers were not newly measured in patent publication USRE42412E1, “Materials and methods for the treatment of gastroesophageal reflux disease” (ARYx Therapeutics, Inc., priority 2000, dated 2011), which cites them from elsewhere.

One data set deals with 5HT4 receptors (Homo sapiens, UniProt Q13639).
For data set [1] the following is noted: between July 1993 and December 1999.
The conditions of data set [2]: of a dose of cisapride.

Chain of 5HT4 receptors (Q13639 whole entry): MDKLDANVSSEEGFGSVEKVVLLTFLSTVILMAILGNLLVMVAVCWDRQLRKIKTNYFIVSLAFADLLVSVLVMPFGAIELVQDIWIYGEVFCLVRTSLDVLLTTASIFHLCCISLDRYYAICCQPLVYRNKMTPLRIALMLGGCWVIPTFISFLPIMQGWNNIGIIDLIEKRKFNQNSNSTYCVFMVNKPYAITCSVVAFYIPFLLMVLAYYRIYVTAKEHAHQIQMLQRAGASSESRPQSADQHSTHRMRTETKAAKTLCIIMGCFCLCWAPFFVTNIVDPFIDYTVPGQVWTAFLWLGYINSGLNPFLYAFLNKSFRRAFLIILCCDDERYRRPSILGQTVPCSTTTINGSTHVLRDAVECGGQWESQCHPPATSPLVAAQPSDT

In the case of `COc1cc(N)c(Cl)cc1C(=O)NC1CCN(CCCOc2ccc(F)cc2)CC1OC` (stereo not shown) [cisapride], at 5HT4 receptors, the “ligand potency at 5HT4 receptors” value is recorded as “potent ligand”. In addition, the deaths reported in data set [1] is recorded as 80. For the same compound, the “serious cardiac arrhythmias reportedly associated” value in data set [1] (ventricular tachycardia, ventricular fibrillation, torsades de pointes, QT prolongation) is recorded as “at least 341”. In addition, the “fraction of dose metabolized by oxidative N-dealkylation at the piperidine nitrogen or aromatic hydroxylation” value in data set [2] is “More than 90%”.
